pEC50, pIC50, pKi: −log10 of the molar value.
Columns and labels:
Mu-type opioid receptor [1] = target: T1, Mu-type opioid receptor (Homo sapiens, UniProt P35372)
Description: Agonist activity at human opioid gamma receptor expressed in CHO cells assessed as stimulation of [35S]GTP-gamma-S binding

Mu-type opioid receptor [2] = target: T1, Mu-type opioid receptor; remark: listed apart in the source
Description: Agonist activity at human opioid gamma receptor expressed in CHO cells assessed as inhibition of DAGO-stimulated [35S]GTPgammaS binding

[3] = target: T2, Kappa-type opioid receptor (Homo sapiens, UniProt P41145); assay: biochemical; format: cell-based, CHO
Description: Displacement of [3H]U-69593 from human opioid kappa receptor expressed in CHO cells

[4] = target: Delta-type opioid receptor (Homo sapiens, UniProt P41143); assay: biochemical; format: cell-based, CHO
Description: Displacement of [3H]naltrindole from human opioid delta receptor expressed in CHO cells

Mu-type opioid receptor [5] = target: T1, Mu-type opioid receptor; assay: biochemical
Description: Displacement of [3H]DAMGO from human opioid gamma receptor expressed in CHO cells

[6] = target: T2, Kappa-type opioid receptor; format: functional, cell-based, CHO
Description: Agonist activity at human opioid kappa receptor expressed in CHO cells assessed as stimulation of [35S]GTPgammaS binding

[7] = target: T2, Kappa-type opioid receptor
Description: Antagonist activity at human opioid kappa receptor expressed in CHO cells assessed as inhibition of U-50488-stimulated [35S]GTP-gamma-S binding

T1 sequence (P35372 whole entry): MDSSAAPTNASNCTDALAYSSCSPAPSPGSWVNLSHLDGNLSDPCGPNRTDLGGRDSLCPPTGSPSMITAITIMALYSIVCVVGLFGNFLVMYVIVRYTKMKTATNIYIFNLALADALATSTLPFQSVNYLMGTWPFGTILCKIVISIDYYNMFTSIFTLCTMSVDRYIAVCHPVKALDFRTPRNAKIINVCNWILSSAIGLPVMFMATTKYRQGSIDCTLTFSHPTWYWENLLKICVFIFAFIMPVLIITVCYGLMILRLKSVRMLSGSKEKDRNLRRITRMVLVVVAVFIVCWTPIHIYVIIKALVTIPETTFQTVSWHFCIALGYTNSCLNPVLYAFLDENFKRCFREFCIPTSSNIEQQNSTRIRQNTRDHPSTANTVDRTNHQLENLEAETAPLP
T2 sequence (P41145 whole entry): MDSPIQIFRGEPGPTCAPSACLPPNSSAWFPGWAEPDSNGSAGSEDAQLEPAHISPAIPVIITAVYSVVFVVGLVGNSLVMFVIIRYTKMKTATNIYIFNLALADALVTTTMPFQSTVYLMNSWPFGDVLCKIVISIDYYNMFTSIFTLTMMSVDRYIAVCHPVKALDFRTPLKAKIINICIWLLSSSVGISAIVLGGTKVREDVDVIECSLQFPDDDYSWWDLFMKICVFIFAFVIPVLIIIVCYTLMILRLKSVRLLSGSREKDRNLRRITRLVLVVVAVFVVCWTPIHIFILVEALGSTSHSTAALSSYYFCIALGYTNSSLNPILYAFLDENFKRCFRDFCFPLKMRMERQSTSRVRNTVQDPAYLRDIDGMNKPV
Chain of Delta-type opioid receptor (P41143 whole entry): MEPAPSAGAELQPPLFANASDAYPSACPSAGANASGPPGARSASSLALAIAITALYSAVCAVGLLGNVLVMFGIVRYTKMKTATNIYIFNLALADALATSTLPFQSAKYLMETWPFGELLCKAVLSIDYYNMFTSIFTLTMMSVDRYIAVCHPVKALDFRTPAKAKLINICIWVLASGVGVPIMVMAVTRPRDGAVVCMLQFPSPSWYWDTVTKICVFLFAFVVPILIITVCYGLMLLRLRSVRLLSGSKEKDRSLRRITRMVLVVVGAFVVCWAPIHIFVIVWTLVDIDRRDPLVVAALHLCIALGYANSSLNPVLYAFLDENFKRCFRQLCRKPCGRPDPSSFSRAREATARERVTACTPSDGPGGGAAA

| Structure (SMILES) | pEC50 (Mu-type opioid receptor [1]) | pIC50 (Mu-type opioid receptor [2]) | pKi [3] | pKi [4] | pKi (Mu-type opioid receptor [5]) | pEC50 [6] | pIC50 [7] |
| --- | --- | --- | --- | --- | --- | --- | --- |
| C=CCN1CC[C@]23c4c5ccc(OC(=O)CCCCCCCCC(=O)Oc6ccc7c(c6)[C@@]68CCCCC6[C@@H](C7)N(CC6CCC6)CC8)c4O[C@H]2C(=O)CC[C@@]3(O)[C@H]1C5 (some centres undefined) | 8.70 | 7.60 | 9.89 | 7.41 | 9.37 | 8.80 | – |
| O=C(CCCCCCCCC(=O)Oc1ccc2c3c1O[C@H]1C(=O)CC[C@@]4(O)[C@@H](C2)N(CC2CC2)CC[C@]314)Oc1ccc2c(c1)[C@@]13CCCCC1[C@@H](C2)N(CC1CCC1)CC3 (some centres undefined) | 8.36 | 6.80 | 9.92 | 7.82 | 9.54 | 8.47 | – |
| O=C(CCCCCCCCC(=O)Oc1ccc2c3c1O[C@H]1[C@H](O)CC[C@@]4(O)[C@@H](C2)N(CC2CCC2)CC[C@]314)Oc1ccc2c(c1)[C@@]13CCCCC1[C@@H](C2)N(CC1CCC1)CC3 (some centres undefined) | – | 7.74 | 9.47 | 7.55 | 9.34 | 8.49 | 6.22 |
| O=C(O)CCCCCCCCC(=O)Oc1ccc2c(c1)[C@@]13CCCCC1[C@@H](C2)N(CC1CCC1)CC3 (some centres undefined) | – | – | – | – | – | 7.55 | – |

— ChEMBL document CHEMBL1147138 (J Med Chem, 2007)
